The test system of one experiment is α-adrenergic receptor. The experiment can be described thus: α-adrenergic receptor antagonistic activity in the isolated rabbit aorta (norepinephrine-induced contraction). To be noted: for pA2: norepinephrine agonist, 37±0.5° C., pH 7.4, negative log of concentration requiring doubled norepinephrine. Type of experiment: cell-based. On the procedure: Female rabbits, weighing 2 to 5 kg., are sacrificed by cervical dislocation. […] The aorta is placed on cylindrical sticks and cleaned of excess fat and connective tissue, then cut into 2 tissue segments approximately 20 mm in length. Each segment of aorta is then spiraled in strips 3.5 mm wide by turning the stick as a scapel is applied, while leaving a section of 2-3 mm at each end of the aorta section intact. The spiraled tissue is mounted in an aerated (as above) tissue bath of 10 ml. of Kreb's buffer and is attached to a Grass force transducer with an initial applied tension of 2 grams. The tissue is allowed to equilibrate in the tissue bath at a temperature of 37±0.5° C. until the tension on the force transducer stabilizes at 2 grams. A cumulative dose-response curve of contraction for the tissue is determined by contacting the tissue with 10 to 400 ul of the standard agonist norepinephrine in log doses of from 1×10^-8 to 1×10^-3M. […] The degree of antagonistic activity is determined by varying the concentration of the test compound and measuring its pA2 value, i.e., the negative log of the concentration of the test compound required to inhibit the norepinephrine response to the extent that the norepinephrine concentration must be doubled to obtain the maximum standard norepinephrine contractile response of the tissue.

The test system of experiment [1] is α1-adrenergic receptor. The experiment in a line: α1-adrenergic receptor selectivity and antagonism (general statements). Conditions: result in words.
The test system of experiment [2] is α1-adrenergic receptor. To be noted: Federation Proceedings, Vol. 41, No. 5, Abst. No. 7064; cited from earlier work.
In experiment [3] the target is α1-adrenergic receptor. The experiment can be described thus: radioligand binding, displacement of [3H] prazosin in rat brain cortex tissue. Conditions: for Ki: [3H] prazosin, calculated from IC50; for KIα2/KIα1: ratio of KI values, α1 selectivity.
For another experiment, the target named is T1, α2-adrenergic receptor (Rattus norvegicus, UniProt P22909).
T1 sequence (P22909 1-465): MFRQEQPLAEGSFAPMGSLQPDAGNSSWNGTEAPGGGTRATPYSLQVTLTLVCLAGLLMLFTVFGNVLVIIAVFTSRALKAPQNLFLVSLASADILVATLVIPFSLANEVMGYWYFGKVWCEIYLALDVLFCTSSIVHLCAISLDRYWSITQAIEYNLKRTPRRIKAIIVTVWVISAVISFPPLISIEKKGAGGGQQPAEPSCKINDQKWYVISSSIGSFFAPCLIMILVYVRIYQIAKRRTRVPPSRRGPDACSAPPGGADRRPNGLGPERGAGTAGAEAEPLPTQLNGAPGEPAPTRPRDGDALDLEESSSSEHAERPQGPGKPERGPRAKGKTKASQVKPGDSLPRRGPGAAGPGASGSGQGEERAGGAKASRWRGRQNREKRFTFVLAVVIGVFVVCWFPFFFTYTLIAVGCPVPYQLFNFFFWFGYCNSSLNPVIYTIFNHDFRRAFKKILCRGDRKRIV
The experiment can be described thus: biochemical. To be noted: rat brain cortex, [3H] yohimbine; calculated from IC50. It is filed as binding.

Experiment [4] has as its system spontaneously hypertensive rat (Okamoto rats). The experiment in a line: arterial blood pressure in the spontaneously hypertensive rat (tail cuff). Conditions: oral, 30 or 100 mg./kg. Type of experiment: in vivo. An excerpt: An occluding cuff, operatively connected to a programmed sphygmomanometer, is placed over the tail of each rat of the group and retained near the tail base. […] A photocell is placed distal to the cuff to detect pulses resulting from the forward motion of blood flow with each heartbeat of the rat. As the pressure in the cuff increases, measurable pulses disappear at the point where the cuff pressure equals the arterial blood pressure. Measurable pulses reappear during deflation at approximately the same pressure, and arterial blood pressure is thereby established by cuff pressure at the point of pulse appearance. The heart rate is determined from the arterial pulse wave. Doses of 30 or 100 mg./kg. of the preferred compound of Example II are administered orally to each rat of the test groups and five interference-free signals are recorded on a Model 7 Grass polygraph for each rat at various measurement periods following administration.

`COc1cc2nc(N3CCN(C(=O)c4ccco4)CC3)nc(N)c2cc1OC` [prazosin, reference compound]: the pA2 in the experiment with α-adrenergic receptor came to 8.58.

Regarding `COc1cc2nc(N3CCN(C(=O)CCCCc4ccc(N=[N+]=[N-])cc4)CC3)nc(N)c2cc1OC` [4-azidophenyl analog, 4-amino-6,7-dimethoxy-2-[4-(5-[4-azidophenyl]pentanoyl)-1-piperazinyl] quinazoline], in the experiment with α1-adrenergic receptor [1], the “selectivity for α1-adrenergic receptor sites” value is “high degree of selectivity for α1 -adrenergic receptor sites” and the α1-antagonism result is given as “produce α1 -antagonism”.

On to `COc1cc2nc(N3CCN(C(=O)c4ccc(N=[N+]=[N-])cc4)CC3)nc(N)c2cc1OC` [2-(4-[4-azido-benzoyl]-piperazin-1-yl)-4-amino-6,7-dimethoxyquinazoline], for which, in the experiment with α1-adrenergic receptor [2], the “α1-adrenergic receptor inhibition upon photolysis” value is listed as “irreversible non-competitive α1 -adrenergic receptor inhibition”.

The molecule `COc1cc2nc(N3CCN(C(=O)c4ccc(N)cc4)CC3)nc(N)c2cc1OC` [C, 2-(4-[4-aminobenzoyl]piperazin-1-yl)-4-amino-6,7-dimethoxyquinazoline, reference compound] had a pA2 in the experiment with α-adrenergic receptor of 7.45. Besides, the Ki on α1-adrenergic receptor [3] is 17 nM; on α2-adrenergic receptor, 12400 nM. Also, the KIα2/KIα1 in the experiment with α1-adrenergic receptor [3] came out at 730.9.

For the molecule `COc1cc2nc(N3CCN(C(=O)CCCCc4ccc(N)cc4)CC3)nc(N)c2cc1OC.Cl.Cl` [Example II, 4-amino-6,7-dimethoxy-2-[4-(5-[4-aminophenyl]pentanoyl)-1-piperazinyl] quinazoline dihydrochloride], the pA2 with α-adrenergic receptor amounted to 7.51. Further, the “inhibition of increase in contractile force produced by norepinephrine” value with α-adrenergic receptor (result in words) is recorded as “inhibited”. On α1-adrenergic receptor [3], the Ki is 4.5 nM and the KIα2/KIα1 is 1,094.5. The inhibition constant (Ki) on α2-adrenergic receptor was 4930 nM. In experiment [4], the “decrease of arterial blood pressure” value is “decrease the arterial blood pressure of rats of each group”. Moreover, in the experiment on α1-adrenergic receptor [1], the “selectivity for α1-adrenergic receptor sites” value was “high degree of selectivity for α1 -adrenergic receptor sites” and the α1-antagonism entry is on record as “produce α1 -antagonism”.

Values taken from patent US4440769A, “2-(4-Phenylalkanoylpiperazin-1-yl) quinazoline compounds, pharmaceutical compositions and method of producing α1 antagonistic activity” (Abbott Laboratories, priority 1983, dated 1984).
